Data published in ChEMBL document CHEMBL2311455, “Combining QSAR classification models for predictive modeling of human monoamine oxidase inhibitors” (Eur J Med Chem, 2013).

Experiments:
[1] = molecular target: T1, Amine oxidase [flavin-containing] A (Homo sapiens, UniProt P21397); experiment: Inhibition of human recombinant MAOA
T1 sequence (P21397 whole entry): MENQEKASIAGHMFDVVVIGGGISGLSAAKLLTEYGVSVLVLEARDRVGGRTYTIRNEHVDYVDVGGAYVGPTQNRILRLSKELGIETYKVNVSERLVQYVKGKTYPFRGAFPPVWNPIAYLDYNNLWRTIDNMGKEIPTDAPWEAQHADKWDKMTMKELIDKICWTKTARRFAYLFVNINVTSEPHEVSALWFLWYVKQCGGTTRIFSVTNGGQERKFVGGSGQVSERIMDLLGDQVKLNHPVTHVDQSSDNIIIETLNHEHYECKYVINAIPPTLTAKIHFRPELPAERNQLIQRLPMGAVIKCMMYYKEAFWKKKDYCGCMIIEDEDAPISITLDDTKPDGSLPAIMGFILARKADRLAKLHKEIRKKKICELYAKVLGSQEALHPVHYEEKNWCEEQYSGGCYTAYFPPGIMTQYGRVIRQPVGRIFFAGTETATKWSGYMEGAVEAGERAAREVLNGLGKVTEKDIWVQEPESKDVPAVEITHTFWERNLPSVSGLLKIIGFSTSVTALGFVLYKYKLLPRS

[2] = molecular target: T2, Amine oxidase [flavin-containing] B (Homo sapiens, UniProt P27338); experiment: Inhibition of human recombinant MAOB
T2 sequence (P27338 whole entry): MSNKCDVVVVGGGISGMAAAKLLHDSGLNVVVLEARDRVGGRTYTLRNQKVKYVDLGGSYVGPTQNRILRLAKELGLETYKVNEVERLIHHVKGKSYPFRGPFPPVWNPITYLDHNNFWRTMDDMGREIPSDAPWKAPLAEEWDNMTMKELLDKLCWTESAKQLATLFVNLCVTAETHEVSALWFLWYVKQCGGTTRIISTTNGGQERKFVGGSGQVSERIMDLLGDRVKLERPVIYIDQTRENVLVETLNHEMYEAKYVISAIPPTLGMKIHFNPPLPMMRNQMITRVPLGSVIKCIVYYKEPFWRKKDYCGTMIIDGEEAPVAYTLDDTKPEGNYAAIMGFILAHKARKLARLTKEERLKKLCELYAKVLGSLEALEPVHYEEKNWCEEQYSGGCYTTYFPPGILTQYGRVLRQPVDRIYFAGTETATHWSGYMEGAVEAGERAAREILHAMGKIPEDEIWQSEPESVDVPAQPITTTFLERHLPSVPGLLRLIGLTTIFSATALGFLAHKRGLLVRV

Homo sapiens = species on record: Homo sapiens; experiment: Selectivity index, difference in pIC50 for human recombinant MAOB and pIC50 for human recombinant MAOA

| Compound | IC50 [1] [µM] | IC50 [2] [µM] | pSI (Homo sapiens) |
| --- | --- | --- | --- |
| O=C(Nc1ccc(O)c(O)c1)c1cc(=O)c2ccccc2o1 | – | – | -1.15 |
| CN(C(=O)c1cc(=O)c2ccccc2o1)c1ccccc1 | > 100 | > 100 | 0 |
| O=C(O)c1coc2ccc(Cl)cc2c1=O | > 100 | > 1000 | < -1 |
| CCOC(=O)c1cc(=O)c2cc(Cl)ccc2o1 | > 100 | 38.9 | > 0.41 |
| O=C(O)c1cc(=O)c2cc(Cl)ccc2o1 | > 100 | > 1000 | < -1 |
| O=c1c(CO)coc2ccccc12 | > 100 | 38 | > 0.42 |
| CCCOC(=O)c1cc(=O)c2ccccc2o1 | > 100 | 35.5 | > 0.45 |

Second part, the compound after the results:

| IC50 [1] [µM] | IC50 [2] [µM] | pSI (Homo sapiens) | Compound |
| --- | --- | --- | --- |
| > 100 | > 100 | 0 | O=c1cc(CO)oc2ccccc12 |
| > 100 | 5.62 | > 1.25 | CCCOC(=O)c1coc2ccccc2c1=O |
| > 100 | 1.91 | > 1.72 | CCOC(=O)c1coc2ccccc2c1=O |
| > 100 | > 100 | 0 | CCOC(=O)c1cc(=O)c2ccccc2o1 |
